{"source": "patent US20060034872A1", "about": "“Compositions and methods for preventing abuse of orally administered medications” (priority 2002, published 2006)", "origin": "cited, not measured here", "key": {"[1]": {"molecular_target": "T1, VR1 receptors of nociceptive afferent neurons (Homo sapiens, UniProt Q8NER1)", "T1 construct": "selective stimulation of the VR1 receptors of nociceptive afferent neurons; from tissue; host or cells: nociceptive afferent neurons in vivo (skin, oral/nasal mucosa, airways, paravenous tissue)", "T1 sequence (Q8NER1 whole entry)": "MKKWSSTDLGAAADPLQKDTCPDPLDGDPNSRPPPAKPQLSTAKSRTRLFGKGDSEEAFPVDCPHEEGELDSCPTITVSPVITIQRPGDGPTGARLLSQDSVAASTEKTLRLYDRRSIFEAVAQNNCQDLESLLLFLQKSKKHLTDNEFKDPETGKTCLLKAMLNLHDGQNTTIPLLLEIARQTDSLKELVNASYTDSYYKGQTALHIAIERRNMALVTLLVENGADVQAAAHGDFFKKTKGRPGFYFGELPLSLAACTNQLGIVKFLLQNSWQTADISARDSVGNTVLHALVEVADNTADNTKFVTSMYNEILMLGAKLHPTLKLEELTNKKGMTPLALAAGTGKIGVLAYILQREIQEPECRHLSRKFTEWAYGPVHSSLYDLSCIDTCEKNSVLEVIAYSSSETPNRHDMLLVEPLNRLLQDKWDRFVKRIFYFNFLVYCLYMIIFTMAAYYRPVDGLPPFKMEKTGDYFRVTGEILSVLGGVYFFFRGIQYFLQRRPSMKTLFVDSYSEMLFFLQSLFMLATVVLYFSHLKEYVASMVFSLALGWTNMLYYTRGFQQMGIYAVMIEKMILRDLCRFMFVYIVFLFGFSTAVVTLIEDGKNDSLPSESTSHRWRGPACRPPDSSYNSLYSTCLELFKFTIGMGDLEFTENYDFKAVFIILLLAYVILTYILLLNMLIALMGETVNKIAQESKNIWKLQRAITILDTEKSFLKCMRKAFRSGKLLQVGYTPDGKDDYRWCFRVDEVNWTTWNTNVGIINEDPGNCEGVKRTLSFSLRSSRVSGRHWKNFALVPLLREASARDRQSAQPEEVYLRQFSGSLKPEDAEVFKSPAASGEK", "details": "for sensation elicited by application: applied to skin, oral or nasal mucosa, or subdermal tissue"}, "[2]": {"molecular_target": "T1, VR1 receptors of nociceptive afferent neurons", "details": "nasal instillation"}, "[3]": {"details": "repeated intravesical instillation, 1-2 mM, over five years"}, "bronchial VR1": {"molecular_target": "T2, bronchial VR1 (Homo sapiens, UniProt Q8NER1)", "T2 construct": "selective stimulation of the VR1 receptors of nociceptive afferent neurons; from tissue; host or cells: nociceptive afferent neurons in vivo (skin, oral/nasal mucosa, airways, paravenous tissue)", "T2 sequence (Q8NER1 whole entry)": "as above", "details": "inhaled, 10^−3-10^−8M solutions"}, "[4]": {"molecular_target": "T1, VR1 receptors of nociceptive afferent neurons", "details": "ingestion; as little as"}, "[5]": {"details": "long term intranasal, 0.15 mg per nostril every 2-3 days, total dose 1.05 mg"}, "peripheral VR1 receptors": {"molecular_target": "T3, peripheral VR1 receptors (Homo sapiens, UniProt Q8NER1)", "T3 construct": "from tissue", "T3 sequence (Q8NER1 whole entry)": "as above"}, "VR1 receptors": {"molecular_target": "T4, VR1 receptors (Homo sapiens, UniProt Q8NER1)", "T4 construct": "selective stimulation of the VR1 receptors of nociceptive afferent neurons; from tissue; host or cells: nociceptive afferent neurons in vivo (skin, oral/nasal mucosa, airways, paravenous tissue)", "T4 sequence (Q8NER1 whole entry)": "as above"}, "[6]": {"test": "not given", "remark": "listed apart in the source"}}}
{"smiles": "C=C(C)[C@]12C[C@@H](C)[C@@]34O[C@](Cc5ccccc5)(O[C@@H]1[C@@H]3C=C(COC(=O)Cc1ccc(O)c(OC)c1)C[C@]1(O)C(=O)C(C)=C[C@@H]41)O2", "note": "[resiniferatoxin]", "values": [{"measurement": "sensation elicited by application", "setting": "[1]", "value": "burning pain"}]}
{"smiles": "COc1cc(CNC(=O)CCCC/C=C/C(C)C)ccc1O", "note": "[capsaicin]", "values": [{"measurement": "sensation elicited by application", "setting": "[1]", "value": "burning pain"}, {"measurement": "sensation following application of dermal cream", "setting": "[1]; dermal cream containing 0.075% capsaicin", "value": "burning pain sensation"}, {"measurement": "amount instilled giving nasal irritation and rhinorrhea", "setting": "[2]", "value": "75 to 150", "unit": "µg"}, {"measurement": "pathological tissue changes", "setting": "[3]", "value": "did not result in pathological tissue changes"}, {"measurement": "immediate effect of inhalation", "setting": "bronchial VR1", "value": "sneezing, coughing, and airway constriction"}, {"measurement": "absorption from the gastrointestinal tract", "setting": "oral administration", "value": "readily absorbed"}, {"measurement": "metabolism in the liver", "setting": "oral administration", "value": "almost completely metabolized"}, {"measurement": "amount ingested after which tongue and throat irritation occurs", "setting": "[4]", "value": 3, "unit": "ppm"}, {"measurement": "histological abnormalities", "setting": "[5]", "value": "no histological abnormalities"}, {"measurement": "maximum tolerated dose (MTD)", "setting": "peripheral VR1 receptors; humans", "value": "approximately 4 μg/kg"}, {"measurement": "dose producing raw, burning sensation in chest, face, rectum and extremities", "setting": "peripheral VR1 receptors; injection directly into the superior vena cava", "value": "> 0.5", "unit": "µg/kg"}, {"measurement": "pain when injected directly into a vein", "setting": "VR1 receptors; injected directly into a vein, up to 650 μM", "value": "does not cause pain"}, {"measurement": "pain when injected intradermally", "setting": "VR1 receptors; intradermal injection", "value": "very severe pain"}, {"measurement": "low capsaicin doses to which paravenous tissue is highly sensitive", "setting": "VR1 receptors; paravenous tissue", "value": "0.3 to 6.5", "unit": "µM"}]}
{"smiles": "CCCCCCCC/C=C\\CCCCCCCC(=O)NCc1ccc(O)c(OC)c1", "note": "[olvanil]", "values": [{"measurement": "first pass metabolism", "setting": "in vivo", "value": "subject to first pass metabolism"}]}
{"smiles": "COc1ccc2c3c1O[C@H]1C(=O)CC[C@@]4(O)[C@@H](C2)N(C)CC[C@]314", "note": "[oxycodone]", "values": [{"measurement": "biological and therapeutic half-lives", "setting": "[6]; in vivo", "value": "very short"}, {"measurement": "bioavailability", "setting": "[6]; oral and intranasal administration", "value": "high"}]}
